According to patent publication US11596165B2, “Compositions, their use, and methods for their formation” (Cambridge Glycoscience Ltd, priority 2018, dated 2023):

Columns and labels:
[1] = Solubility of cellobiose when combined with xylo-oligosaccharides; assay type: physicochemical; conditions: 20-320 mg/mL, vortexed 30 seconds, in the presence of half or the same concentration of xylo-oligosaccharides (e.g., at 80 mg/mL)
Procedure: 1. Solutions/suspensions of cellobiose at concentrations from 20-320 mg/mL were vortexed for 30 seconds alone (FIG. 4, panel a), in the presence of half the concentration of xylo-oligosaccharides (FIG. 4, panel b), or the same concentration of xylo-oligosaccharides (FIG. 4, panel c).

[2] = Hygroscopicity of oligosaccharide powder at 25° C. in 100% humidity; assay type: physicochemical; conditions: 5 g, 10 hours at 25° C. in 100% humidity
Text: The compositions are to be used in a wide range of foodstuff, cosmetic, or nutraceutical applications, therefore the required hygroscopicity for each application can vary. The aim of this example was to test if hygroscopicity can be adapted by altering the oligosaccharide compositions. • 1. 5 g of oligosaccharide compositions (cellobiose, 4:1 cellobiose:xylo-oligosaccharide, 3:2 cellobiose:xylo-oligosaccharide, 2:3 cellobiose:xylo-oligosaccharide, 1:4 cellobiose:xylo-oligosaccharide, xylo-oligosaccharide) were incubated for 10 hours at 25° C. in 100% humidity. • 2.

water uptake [2]: effectively resisted water uptake
SMILES: O=C[C@H](O)[C@@H](O)[C@H](O[C@@H]1O[C@H](CO)[C@@H](O)[C@H](O)[C@H]1O)[C@H](O)CO [cellobiose]
dissolution of cellobiose [1]: enabled more readily at higher concentrations
